Results on two compounds are retold here after ChEMBL document CHEMBL1153314, “[2-(4-Phenyl-4-piperidinyl)ethyl]amine based CCR5 antagonists: derivatizations at the N-terminal of the piperidine ring” (Bioorg Med Chem Lett, 2009).

Series [1] can be described thus: in vivo. The following applies: rat, 1 mg/kg.
Series [2] in a line: in vivo. The following applies: rat, 1 mg/kg. The source holds these as a separate data set.
Series [3] can be described thus: in vivo. The following applies: rat, po, 1 mg/kg.
Series [4] is described as follows: in vivo. The following applies: rat, 1 mg/kg. This is another data set of the same source.

A word on the clearance: it is a measure of how efficiently the substance is removed, as volume per time. One may read the Vd as a proportionality between amount in the body and measured concentration, not a real space. A higher Vd goes with extensive tissue distribution. A word on the bioavailability: it is dose-corrected exposure relative to a reference, in per cent. A high value points to good availability. Compound `Cc1nc2ccccc2n1[C@H]1C[C@H]2CC[C@@H](C1)N2CCC1(c2ccccc2)CCN(C(C(=O)O)c2ccccc2)CC1` (some centres not stated) gave a clearance in “in vivo [1]” of 117 mL/min/kg. This compound also returned a Vd in “in vivo [2]” of 3.5 L/kg. The compound also had a bioavailability in the series “in vivo [3]” of 0%.
For orientation: half-life means how long it takes for the measured level to halve. In the case of `CNC(=O)C(c1ccc(F)cc1)N1CCC(CCN2[C@@H]3CC[C@H]2C[C@@H](n2c(C)nc4ccccc42)C3)(c2cccc(F)c2)CC1` (some centres not stated), in the series “in vivo [1]”, the clearance amounted to 43 mL/min/kg. This compound had a half-life in “in vivo [4]” of 366 min. The same compound gave a distribution volume (Vd) in the series “in vivo [2]” of 16.5 L/kg. In “in vivo [3]”, this compound gave a bioavailability of 37%.
